Columns and labels:
[1] = test system: VIOTR; test: Pre-emergence action at 320 g/ha against VIOTR; assay type: in vivo, Viola tricolor; details: dosage 320 g/ha
Method in brief: (§1)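 Greenhouse pot trial in which formulated compound (wettable powder or emulsion concentrate) goes onto the soil surface right after sowing, at a spray volume of 600 l/ha including 0.5% additive. Effects are judged visually after about 3 weeks (0% = like control, 100% = dead).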

[2] = test system: DIGSA; test: Pre-emergence action against DIGSA, 1280 g/ha; assay type: in vivo, Digitaria sanguinalis; details: visual scoring after about 3 weeks vs untreated controls, 100% = plants have died, 0% = like control plants
Method in brief: (§2)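 Compound applied as WP or EC in aqueous spray (0.5% additive, 600 L/ha) to the surface of sandy loam covering freshly sown seeds. After about 3 weeks under good greenhouse conditions, damage is given as visual percentage, 100% meaning plant death.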

[3] = test system: AVEFA; test: Post-emergence action at 320 g/ha against AVEFA; assay type: in vivo; details: visual rating about 3 weeks after treatment vs untreated controls
Description: Accordingly, the compounds of the invention have good herbicidal action against a broad spectrum of weed grasses and broad-leaved weeds and are therefore suitable for controlling unwanted vegetation by the post-emergence method. • b) Seeds of monocotyledonous and dicotyledonous weeds and crop plants are placed in sandy loam in plastic or organic planting pots, covered with soil and cultivated in a greenhouse under controlled growth conditions. 2 to 3 weeks after sowing, the test plants are treated at the one-leaf stage. The compounds of the invention, formulated in the form of wettable powders (WP) or as emulsion concentrates (EC), are then sprayed onto the green parts of the plants as aqueous suspension or emulsion with addition of 0.5% additive at a water application rate of 600 l/ha (converted). After the test plants have been kept in the greenhouse under optimum growth conditions for about 3 weeks, the activity of the preparations is rated visually in comparison to untreated controls. For example, 100% activity=the plants have died, 0% activity=like control plants. Tables 39 to 49 below show the effects of selected compounds of the general formula (I) according to Tables 1 and 2 on various harmful plants and at an application rate corresponding to 320 g/ha, which were obtained by the experimental procedure mentioned above.

[4] = test system: SETVI; test: Pre-emergence action at 320 g/ha against SETVI; assay type: in vivo, Setaria viridis; details: visual scoring after about 3 weeks vs untreated controls
Method in brief: as §1

[5] = test system: POAAN; test: Post-emergence action against POAAN, 1.28 kg/ha; assay type: in vivo, Poa annua; details: dosage 1280 g/ha, visual rating about 3 weeks after treatment vs untreated controls
Method in brief: (§3)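 Activity scored visually roughly 3 weeks after treatment against untreated plants (0% = as control, 100% = dead). Plants grown in sandy loam in greenhouse, treated at one-leaf stage, 2–3 weeks post-sowing, with WP/EC spray containing 0.5% additive at 600 l/ha.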

[6] = test system: VERPE; test: Pre-emergence action at 320 g/ha against VERPE; assay type: in vivo, Veronica persica; details: visual scoring after about 3 weeks vs untreated controls
Method in brief: as §1

[7] = test system: AMARE; test: Pre-emergence action against AMARE, 1280 g/ha; assay type: in vivo, Amaranthus retroflexus; details: scored visually after about 3 weeks vs untreated controls (100% = plants have died)
Method in brief: as §2

[8] = test system: MATIN; test: Pre-emergence action at 320 g/ha against MATIN; assay type: in vivo, Tripleurospermum inodorum (Matricaria inodora); details: visual scoring after about 3 weeks vs untreated controls
Method in brief: as §1

[9] = test system: LOLRI; test: Pre-emergence action at 320 g/ha against LOLRI; assay type: in vivo, Lolium rigidum; details: visual scoring after about 3 weeks vs untreated controls
Description: (§4) b) Seeds of monocotyledonous and dicotyledonous weed plants and crop plants are placed in plastic or organic planting pots and covered with soil. The compounds of the invention, formulated in the form of wettable powders (WP) or as emulsion concentrates (EC), are then applied onto the surface of the covering soil as aqueous suspension or emulsion with addition of 0.5% additive at a water application rate of 600 l/ha (converted). After the treatment, the pots are placed in a greenhouse and kept under good growth conditions for the trial plants. After about 3 weeks, the effect of the preparations is scored visually in comparison with untreated controls as percentages. For example, 100% activity=the plants have died, 0% activity=like control plants. Tables 13 to 26 below show the effects of selected compounds of the general formula (I) on various harmful plants and at an application rate corresponding to 320 g/ha, which were obtained by the experimental procedure mentioned above.

[10] = test system: AMARE; test: Pre-emergence action at 320 g/ha against AMARE; assay type: in vivo, Amaranthus retroflexus; details: visual scoring after about 3 weeks vs untreated controls
Method in brief: as §1

[11] = test system: STEME; test: Pre-emergence action against STEME, 1280 g/ha; assay type: in vivo, Stellaria media; details: scored visually after about 3 weeks vs untreated controls (100% = plants have died)
Method in brief: as §2

[12] = test system: POAAN; test: Pre-emergence action against POAAN, 1280 g/ha; assay type: in vivo, Poa annua; details: visual scoring after about 3 weeks vs untreated controls, 100% = plants have died, 0% = like control plants
Method in brief: as §2

[13] = test system: LOLRI; test: Pre-emergence action against LOLRI, 1280 g/ha; assay type: in vivo, Lolium rigidum; details: visual scoring after about 3 weeks vs untreated controls, 100% = plants have died, 0% = like control plants
Method in brief: as §2

[14] = test system: POLCO; test: Pre-emergence action at 320 g/ha against POLCO; assay type: in vivo, Fallopia convolvulus (Polygonum convolvulus); details: visual scoring after about 3 weeks vs untreated controls
Method in brief: as §1

[15] = test system: MATIN; test: Post-emergence action against MATIN, 1.28 kg/ha; assay type: in vivo, Tripleurospermum inodorum (Matricaria inodora); details: dosage 1280 g/ha, visual rating about 3 weeks after treatment vs untreated controls (100% = plants died)
Method in brief: as §3

[16] = test system: DIGSA; test: Pre-emergence action at 320 g/ha against DIGSA; assay type: in vivo, Digitaria sanguinalis; details: visual scoring after about 3 weeks vs untreated controls
Method in brief: as §1

[17] = test system: ALOMY; test: Pre-emergence action against ALOMY, 1280 g/ha; assay type: in vivo, Alopecurus myosuroides; details: visual scoring after about 3 weeks vs untreated controls, 100% = plants have died, 0% = like control plants
Method in brief: as §2

[18] = test system: KCHSC; test: Pre-emergence action against KCHSC, 1280 g/ha; assay type: in vivo, Bassia scoparia; details: scored visually after about 3 weeks vs untreated controls (100% = plants have died)
Method in brief: as §2

[19] = test system: MATIN; test: Pre-emergence action against MATIN, 1280 g/ha; assay type: in vivo, Tripleurospermum inodorum (Matricaria inodora); details: scored visually after about 3 weeks vs untreated controls (100% = plants have died)
Method in brief: as §2

[20] = test system: VERPE; test: Post-emergence action against VERPE, 1.28 kg/ha; assay type: in vivo, Veronica persica; details: dosage 1280 g/ha, visual rating about 3 weeks after treatment vs untreated controls (100% = plants died)
Method in brief: as §3

[21] = test system: AMARE; test: Post-emergence action against AMARE, 1.28 kg/ha; assay type: in vivo, Amaranthus retroflexus; details: dosage 1280 g/ha, visual rating about 3 weeks after treatment vs untreated controls (100% = plants died)
Method in brief: as §3

[22] = test system: ECHCG; test: Pre-emergence action against ECHCG, 1280 g/ha; assay type: in vivo, Echinochloa crus-galli; details: visual scoring after about 3 weeks vs untreated controls, 100% = plants have died, 0% = like control plants
Method in brief: as §2

[23] = test system: SETVI; test: Pre-emergence action against SETVI, 1280 g/ha; assay type: in vivo, Setaria viridis; details: visual scoring after about 3 weeks vs untreated controls, 100% = plants have died, 0% = like control plants
Method in brief: as §2

[24] = test system: VERPE; test: Pre-emergence action against VERPE, 1280 g/ha; assay type: in vivo, Veronica persica; details: scored visually after about 3 weeks vs untreated controls (100% = plants have died)
Method in brief: as §2

[25] = test system: ALOMY; test: Pre-emergence action at 320 g/ha against ALOMY; assay type: in vivo, Alopecurus myosuroides; details: scored visually after about 3 weeks vs untreated controls (100% = plants have died)
Method in brief: as §1

[26] = test system: AVEFA; test: Pre-emergence action at 320 g/ha against AVEFA; assay type: in vivo; details: visual scoring after about 3 weeks vs untreated controls
Description: as §4

[27] = test system: ECHCG; test: Post-emergence action against ECHCG, 1.28 kg/ha; assay type: in vivo, Echinochloa crus-galli; details: dosage 1280 g/ha, visual rating about 3 weeks after treatment vs untreated controls
Method in brief: as §3

[28] = test system: ABUTH; test: Post-emergence action against ABUTH, 1.28 kg/ha; assay type: in vivo, Abutilon theophrasti; details: dosage 1280 g/ha, visual rating about 3 weeks after treatment vs untreated controls (100% = plants died)
Method in brief: as §3

[29] = test system: LOLRI; test: Post-emergence action against LOLRI, 1.28 kg/ha; assay type: in vivo, Lolium rigidum; details: dosage 1280 g/ha, visual rating about 3 weeks after treatment vs untreated controls
Method in brief: as §3

[30] = test system: ALOMY; test: Post-emergence action against ALOMY, 1.28 kg/ha; assay type: in vivo, Alopecurus myosuroides; details: dosage 1280 g/ha, visual rating about 3 weeks after treatment vs untreated controls
Method in brief: as §3

[31] = test system: KCHSC; test: Post-emergence action against KCHSC, 1.28 kg/ha; assay type: in vivo, Bassia scoparia; details: dosage 1280 g/ha, visual rating about 3 weeks after treatment vs untreated controls (100% = plants died)
Method in brief: as §3

[32] = test system: SETVI; test: Post-emergence action against SETVI, 1.28 kg/ha; assay type: in vivo, Setaria viridis; details: dosage 1280 g/ha, visual rating about 3 weeks after treatment vs untreated controls
Method in brief: as §3

[33] = test system: DIGSA; test: Post-emergence action against DIGSA, 1.28 kg/ha; assay type: in vivo, Digitaria sanguinalis; details: dosage 1280 g/ha, visual rating about 3 weeks after treatment vs untreated controls
Method in brief: as §3

[34] = test system: STEME; test: Post-emergence action against STEME, 1.28 kg/ha; assay type: in vivo, Stellaria media; details: dosage 1280 g/ha, visual rating about 3 weeks after treatment vs untreated controls (100% = plants died)
Method in brief: as §3

Structure (SMILES)	Pre-emergence action against DIGSA [2] [%]	Post-emergence action against POAAN [5] [%]	Pre-emergence action against AMARE [7] [%]	Pre-emergence action against STEME [11] [%]	Pre-emergence action against POAAN [12] [%]	Pre-emergence action against LOLRI [13] [%]	Post-emergence action against MATIN [15] [%]	Pre-emergence action against ALOMY [17] [%]	Pre-emergence action against KCHSC [18] [%]	Pre-emergence action against MATIN [19] [%]	Post-emergence action against VERPE [20] [%]	Post-emergence action against AMARE [21] [%]	Pre-emergence action against ECHCG [22] [%]	Pre-emergence action against SETVI [23] [%]	Pre-emergence action against VERPE [24] [%]	further results
C[C@@H](Oc1nn(-c2ccccc2F)c(-c2cncnc2)c1[N+](=O)[O-])C(=O)O [VI-016]	100	100	100	100	100	100	90	90	100	100	90	100	100	100	100	Pre-emergence action against VIOTR in % [1]: 100%; Post-emergence action against AVEFA in % [3]: 90%; Pre-emergence action against SETVI in % [4]: 100%; Pre-emergence action against VERPE in % [6]: 100%; Pre-emergence action against MATIN in % [8]: 100%; Pre-emergence action against LOLRI in % [9]: 100%; Pre-emergence action against AMARE in % [10]: 100%; Pre-emergence action against POLCO in % [14]: 90%; Pre-emergence action against DIGSA in % [16]: 100%; Pre-emergence action at 320 g/ha against ALOMY in % [25]: 100%; Pre-emergence action against AVEFA in % [26]: 80%
CCOC(=O)COc1nn(-c2ccc(F)cc2F)c(-c2ccc(F)nc2)c1Br [VII-101]	100	100	100	100	100	100	100	100	100	100	100	90	90	100	100	Post-emergence action against ECHCG [27]: 100%; Post-emergence action against ABUTH [28]: 90%; Post-emergence action against LOLRI [29]: 100%; Post-emergence action against ALOMY [30]: 100%; Post-emergence action against KCHSC [31]: 90%; Post-emergence action against SETVI [32]: 100%; Post-emergence action against DIGSA [33]: 100%; Post-emergence action against STEME [34]: 100%

From US12180187B2, “1-phenyl-5-azinylpyrazolyl-3-oxyalkyl acids and their use for controlling unwanted plant growth” (BAYER AKTIENGESELLSCHAFT, priority 2019, dated 2024)
